The IC50 is the concentration needed to halve the response being measured.

This assay deals with T1, mouse ATGL I69F/T146G double mutant (Mus musculus, UniProt Q8BJ56, I69F/T146G).
T1 construct: host or cells: Expi293 cells, cell lysate
The assay can be described thus: TAG hydrolase assay, humanized mouse ATGL variants. The settings on record: I69F/T146G double mutant of mouse ATGL. Format: biochemical. The source says: The region between aa 60 and 146 of human and mouse ATGL comprises 12 nonidentical aa. We generated 3D homology models for the minimal active domain of mouse ATGL to obtain more detailed insight into the topology of the relevant region (Figure 5d). Based on this model, aa T101, C106, R109, N111, and S133 locate at peripheral (loop) regions (indicated in orange, Figure 5d). […] For all other nonidentical aa (indicated in magenta, Figure 5d), we generated variants with single aa substitutions. The humanized variants A60V, N68K, T93I, and C97F were inactivated by Ai but not NG-497 (Figure 5a).
Figure 6 Identification of the molecular scaffold determining species selectivity. (a) Schematic view of mouse ATGL variants, which are sensitive to NG-497 inhibition. Humanized aa are indicated in red and nonidentical aa are indicated in dark blue. (b) Dose-dependent inhibition of the I69F/T146G double mutant, the I69F/T93I/C97F/T146G quadruple mutant, and human ATGL. (c) Dose-dependent inhibition of triple mutants I69F/T93I/T146G and I69F/C97F/T146G, and human ATGL. IC50 values are shown in the insets. […]
Expression of recombinant ATGL constructs and preparation of cell lysates. […] Protein concentrations were determined using Bio-Rad protein assay (Bio-Rad 785, Bio-Rad Laboratories, Munich, Germany) using BSA as standard. […]

T1 sequence (Q8BJ56 whole entry I69F/T146G): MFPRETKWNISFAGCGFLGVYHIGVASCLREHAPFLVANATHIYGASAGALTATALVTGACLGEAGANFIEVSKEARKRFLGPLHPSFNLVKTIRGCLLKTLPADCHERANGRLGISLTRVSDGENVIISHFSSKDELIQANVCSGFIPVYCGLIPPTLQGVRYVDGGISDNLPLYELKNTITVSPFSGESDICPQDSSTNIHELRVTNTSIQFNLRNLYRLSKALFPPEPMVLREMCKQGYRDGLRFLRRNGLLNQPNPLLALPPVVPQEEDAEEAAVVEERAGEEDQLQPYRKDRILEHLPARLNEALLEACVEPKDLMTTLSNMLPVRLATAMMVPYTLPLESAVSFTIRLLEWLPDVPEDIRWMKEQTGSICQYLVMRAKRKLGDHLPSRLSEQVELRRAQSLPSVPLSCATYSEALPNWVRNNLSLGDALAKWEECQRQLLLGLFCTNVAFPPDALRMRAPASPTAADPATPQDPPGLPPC

`CCOc1ccc(-c2cc(OC)cc(C(=O)OC(C)C)n2)cc1` [NG-497] had an IC50 of 9 µM.

The values above are taken from paper PMC9011347, “Small-Molecule Inhibitors Targeting Lipolysis in Human Adipocytes” (Journal of the American Chemical Society, 2022).
